This note sets out measurements from patent EP0804408B1, “NOVEL 4-SUBSTITUTED 2,6-DI-TERT-BUTYLPHENOL COMPOUNDS, PHARMACEUTICAL COMPOSITIONS CONTAINING SAME AND PREPARATION METHOD THEREFOR” (priority 1994, dated 1996).

The structures appear in SMILES notation.

One data set has as its system cellules MT4. As to the kind of experiment: Cytotoxicity control on MT4 cells (uncontaminated AVF1 samples, diluted and ultracentrifuged). As to conditions: non contaminé, dilué et centrifugé, inoculated at dilution 1/4, 10 days culture. In kind it is cell-based, humaines. As for the experimental part: • Contrôles négatifs : • . Les cellules utilisées pour le titrage, non infectées (culture témoin). • . les trois concentrations de AVF1 utilisées dans l'étude, diluées en tampon NTE et ultracentrifugées. Ces échantillons (contrôles négatifs) ont été utilisés pour vérifier l'absence de toxicité due à des traces résiduelles de AVF1, sur les cellules MT4. • Contrôles positifs : • . Le VIH-1 dilué en milieu de culture à la dilution réalisée pour l'étude, immédiatement aliquoté et stocké à -80°C (contrôle positif). • . Le VIH-1 dilué en milieu de culture à la dilution réalisée pour l'étude, puis dilué en tampon NTE, ultracentrifugé, filtré sur un filtre de 0,45 µm, aliquoté, stocké à -80°C et titré ultérieurement (contrôle de centrifugation). • . Le VIH-1 dilué en milieu de culture à la dilution réalisée pour l'étude, laissé 10 minutes à température ambiante, puis dilué en tampon NTE, ultracentrifugé, filtré sur un filtre de 0,45 µm, aliquoté, stocké à -80°C et titré ultérieurement (contrôle expérimental).
Le contrôle de toxicité a été réalisé dans des conditions identiques à celles décrites pour la méthode de titrage, mais en inoculant les cellules MT4 avec les échantillons non contaminés par le VIH-1 et décrits précédemment (contrôle négatif).
Le critère de non toxicité du produit est établi a été établi en comparant l'aspect morphologique et la viabilité des cellules MT4 inoculées avec du milieu de culture (culture témoin) ou avec les échantillons non contaminés (contrôles négatifs) après 10 jours de culture.

In data set [1] the test system is virus-stock de souche HSV1. As to the kind of experiment: Virucidal properties on HSV1 stock virus (infectious titre after incubation at 37°C). In kind it is cell-based. As for the experimental part:
On a apprécié les propriétés virucides du 3,5-di-t-butyl-4-hydroxybenzoate d'octaoxyéthylèneglycol de formule : [drawing 23] dénommé ci-après par commodité AVF1, sur un échantillon de "virus-stock" de souche HSV1. Le titre infectieux (TV) d'échantillons traités avec AVF1 a été comparé au titre infectieux (TV0) d'un échantillon témoin afin de calculer la valeur log (TV/TV0).
Le protocole a consisté à incuber à 37°C l'échantillon de virus HSV1 stock avec le composé AVF1, en faisant varier la concentration en AVF1 et le temps d'incubation. TV0 a été déterminé à partir d'une composition constituée de 0,5 ml de milieu de culture MEM et 0,5 ml de virus-stock et TV a été déterminée à partir d'une composition constituée de 0,5 ml de AVF1 à diverses concentrations dans ledit milieu MEM et de 0,5 ml de virus-stock. Les valeurs TV0 et TV obtenus sont des multiples de la DI50/ml.
• Concentrations en AVF1 : 0,03; 0,06; 0,12; 0,25; 0,5; 1,25; 2,5; 5 mg/ml. • Temps d'incubation : 60 et 120 minutes. • Résultats : • Titre du témoin-virus : […] DI50/ml. • AVF1 < 2,5 mg/ml : TV. • AVF1 ≥ 2,5 mg/ml : 0. • Conclusions : AVF1 est virucide en 60 minutes à la concentration 2,5 mg/ml.
• Concentrations en AVF1 : 1 et 5 mg/ml. • Temps d'incubation : 5, 15, 30, et 60 minutes. • Résultats : • Titre du témoin-virus : 2 x 10^6 DI50/ml • AVF1 = 5 mg/ml : virucide en 5 minutes, titre = 0. • AVF1 = 1 mg/ml : le titre est réduit de 1,5 log 10 en 60 minutes.

Take `CC(C)(C)c1cc(C(=O)OCCOCCOCCOCCOCCOCCOCCOCCO)cc(C(C)(C)C)c1O` [AVF1, 3,5-di-t-butyl-4-hydroxybenzoate d'octaoxyéthylèneglycol]: the “Remarques (toxicité sur cellules MT4)” value in the data set with cellules MT4 (AVF1 dilué à 0,5%), in the data set with cellules MT4 (AVF1 dilué à 1%) and in the data set on cellules MT4 (AVF1 dilué à 2%) was “Non toxique (échantillon inoculé à la dilution 1/4)” in each case. Besides, the “concentration virucide en 60 minutes” value in data set [1] (Essai 1, 60 minutes, 37°C) was 2,5 mg/ml. Also, the “Titre infectieux (TV)” value in data set [1] (Essai 1, AVF1 ≥ 2,5 mg/ml, incubation 60 and 120 minutes, 37°C) worked out at 0 DI50/ml. Further, the réduction du titre in data set [1] (Essai 2, AVF1 = 1 mg/ml, 60 minutes) is reported as 1,5 log 10. The titre in data set [1] (Essai 2, AVF1 = 5 mg/ml, virucidal in 5 minutes) amounted to 0 DI50/ml.
